Measurements: article PMC10272112 (Nature Communications, 2023)

Legend:
Experiment in all cases: Chemoproteomic competition pulldown assay (co-competed CoREST partner)
Type in all cases: binding
GSE1 = conditions: SW620 lysate
Protocol: (§1) To identify proteins directly bound by lipoic acid, we employed a chemoproteomic competition assay. Briefly, (R/S)-LA was immobilized on sepharose beads via an amidation reaction to form an affinity matrix (abbreviated as iL; Fig. 1a). This affinity matrix can be incubated with cell lysate to pull down potential LA or LM target proteins and identify these targets via bottom-up proteomics. In a competition assay, free LA or LM were incubated with lysate at different concentrations before pulling down and quantifying target proteins. […] (Fig. 1b, see “Methods” for details). […] The lysate buffer used in this assay contains 1 mM DTT to mimic the intracellular reductive milieu and to reduce lipoic acid and LM. […] Additional competition assays performed in lung adenocarcinoma cell A549 lysate also identified HDAC1, HDAC2, and HDAC6 as targets (Supplementary Fig. 1b). Amongst the three cell lines tested, HDACs were the only confidently identified targets across the 1500–3000 proteins quantified in these assays. […] We validated the results by analogous pulldown competition assays using two other affinity matrices prepared via the immobilization of either the HDAC inhibitor Quisinostat (iQ) and an analog of the class IIa HDAC inhibitor Bürli’s 31[14] (iC)[12]. We have previously shown that these affinity matrices specifically bind to the active sites of HDACs and have used them for HDACi selectivity profiling. Indeed, binding of (R/S)-LA and (R/S)-LM to HDAC1, HDAC2, HDAC3, HDAC6, and, to a lesser extent, HDAC8 was confirmed in these assays (Supplementary Fig. 1c, d). No binding to class IIa HDACs or the recently discovered common HDAC inhibitor off-target MBLAC2 was observed (Supplementary Fig. 1e)[12]. […] This observation might reflect electrostatic repulsion between the HDAC10 active site gate-keeper glutamic acid residues[15],[16] and the terminal carboxylic acid of LA.
(§2) To assess the degree of protein depletion from lysates by the affinity matrix, a second pulldown (PDPD) with fresh beads was performed using the unbound protein fraction from the vehicle control flow through. The beads were washed (1 × 1 mL of lysis buffer without inhibitors and only 0.4% Igepal, 2 × 2 mL of lysis buffer without inhibitors and only 0.2% Igepal), and captured proteins were denatured with 8 M urea buffer, alkylated with 55 mM chloroacetamide and digested with Trypsin according to standard procedures. The resulting peptides were desalted on a C18 filter plate (Sep-Pak® tC18 µElution Plate, Waters), vacuum dried, and stored at −20 °C until LC–MSMS measurement.
(§3) For the competition assays, relative binding was calculated based on the protein intensity ratio to the DMSO control for every single inhibitor concentration. EC50 values were derived from a four-parameter log-logistic regression with variable slope (constrain: bottom > 0). The obtained EC50 values were multiplied with a protein-dependent correction factor (cf), resulting in the apparent Kd value (Kd^app). The correction factor is determined by calculating the ratio of the protein intensity of two consecutive pulldowns of the vehicle control sample[13]. Targets of the inhibitors were annotated manually according to published procedures[12],[46],[47]. […] Additionally, the number of unique peptides and MSMS counts per condition were taken into account. Positive target binding across several independent experiments performed with different cell lysates further substantiated our confidence for a true positive drug-target binding event.

RCOR3 = tested on: RCOR3
Protocol: as §1, §2, §3

KDM1A = tested on: KDM1A
Protocol: as §1, §2, §3

[1] = iL, A549 lysate, log10 M -4.52288
[2] = iL, A549 lysate, log10 M -5.52288
[3] = iL, A549 lysate, log10 M -6.52288
[4] = iL, A549 lysate, log10 M -7.52288
[5] = iL, A549 lysate, log10 M -8.52288
[6] = iQ, SW620 lysate, log10 M -3.52288
[7] = iQ, SW620 lysate, log10 M -4.52288
[8] = iQ, SW620 lysate, log10 M -5.52288
[9] = iQ, SW620 lysate, log10 M -6.52288

`O=C(O)CCCCC1CCSS1` (racemic) [(R/S)-LA, (R/S)-lipoic acid] was tested, and the “relative binding vs DMSO” value (GSE1; iL, log10 M -5) was 0.09089, the “relative binding vs DMSO” value (GSE1; iL, log10 M -5.52288) was 0.3606 and the “relative binding vs DMSO” value (GSE1; iL, log10 M -6) was 1.287. The “relative binding vs DMSO” value (GSE1; iL, log10 M -6.52288) was 0.7924, the “relative binding vs DMSO” value (GSE1; iL, log10 M -7) was 1.217 and the “relative binding vs DMSO” value (GSE1; iQ, log10 M -3.52288) was 0.1048. The “relative binding vs DMSO” value (GSE1; iQ, log10 M -4) was 0.1152, the “relative binding vs DMSO” value (GSE1; iQ, log10 M -4.52288) was 0.3197 and the “relative binding vs DMSO” value (GSE1; iQ, log10 M -5) was 0.4493. The “relative binding vs DMSO” value (GSE1; iQ, log10 M -5.52288) was 0.5952, the “relative binding vs DMSO” value (GSE1; iQ, log10 M -6) was 0.7905 and the “relative binding vs DMSO” value (GSE1; iQ, log10 M -6.52288) was 0.8177. The “relative binding vs DMSO” value (GSE1; iQ, log10 M -7) was 0.7924, the “relative binding vs DMSO” value (RCOR3; iL, A549 lysate, log10 M -4) was 0 and the “relative binding vs DMSO” value (RCOR3; [1]) was 0. The “relative binding vs DMSO” value (RCOR3; iL, A549 lysate, log10 M -5) was 0, the “relative binding vs DMSO” value (RCOR3; [2]) was 0 and the “relative binding vs DMSO” value (RCOR3; iL, A549 lysate, log10 M -6) was 0.7701. The “relative binding vs DMSO” value (RCOR3; [3]) was 1.109, the “relative binding vs DMSO” value (RCOR3; [4]) was 1.217 and the “relative binding vs DMSO” value (RCOR3; iL, A549 lysate, log10 M -8) was 1.199. The “relative binding vs DMSO” value (RCOR3; [5]) was 1.533, the “relative binding vs DMSO” value (RCOR3; [6]) was 0.06142 and the “relative binding vs DMSO” value (RCOR3; iQ, SW620 lysate, log10 M -4) was 0.2749. The “relative binding vs DMSO” value (RCOR3; [7]) was 0.55, the “relative binding vs DMSO” value (RCOR3; iQ, SW620 lysate, log10 M -5) was 0.4741 and the “relative binding vs DMSO” value (RCOR3; [8]) was 0.7307. The “relative binding vs DMSO” value (RCOR3; iQ, SW620 lysate, log10 M -6) was 0.7404, the “relative binding vs DMSO” value (RCOR3; [9]) was 0.7642 and the “relative binding vs DMSO” value (RCOR3; iQ, SW620 lysate, log10 M -7) was 0.7542. The “relative binding vs DMSO” value (KDM1A; iL, A549 lysate, log10 M -4) was 0.08234, the “relative binding vs DMSO” value (KDM1A; [1]) was 0.1175 and the “relative binding vs DMSO” value (KDM1A; iL, A549 lysate, log10 M -5) was 0.1963. For the same compound, the “relative binding vs DMSO” value (KDM1A; [2]) was 0.3595, the “relative binding vs DMSO” value (KDM1A; iL, A549 lysate, log10 M -6) was 0.6514 and the “relative binding vs DMSO” value (KDM1A; [3]) was 1.056. The “relative binding vs DMSO” value (KDM1A; [4]) was 0.9439, the “relative binding vs DMSO” value (KDM1A; iL, A549 lysate, log10 M -8) was 1.171 and the “relative binding vs DMSO” value (KDM1A; [5]) was 1.264. For the same compound, the “relative binding vs DMSO” value (KDM1A; iL, SW620 lysate, log10 M -3.52288) was 0, the “relative binding vs DMSO” value (KDM1A; iL, SW620 lysate, log10 M -4) was 0 and the “relative binding vs DMSO” value (KDM1A; iL, SW620 lysate, log10 M -4.52288) was 0. The “relative binding vs DMSO” value (KDM1A; iL, SW620 lysate, log10 M -5) was 0.08571, the “relative binding vs DMSO” value (KDM1A; iL, SW620 lysate, log10 M -5.52288) was 0.9092 and the “relative binding vs DMSO” value (KDM1A; iL, SW620 lysate, log10 M -6) was 1.31. For the same compound, the “relative binding vs DMSO” value (KDM1A; iL, SW620 lysate, log10 M -6.52288) was 1.608, the “relative binding vs DMSO” value (KDM1A; iL, SW620 lysate, log10 M -7) was 1.68 and the “relative binding vs DMSO” value (KDM1A; [6]) was 0.1418. For the same compound, the “relative binding vs DMSO” value (KDM1A; iQ, SW620 lysate, log10 M -4) was 0.1346, the “relative binding vs DMSO” value (KDM1A; [7]) was 0.3513 and the “relative binding vs DMSO” value (KDM1A; iQ, SW620 lysate, log10 M -5) was 0.5517. For the same compound, the “relative binding vs DMSO” value (KDM1A; [8]) was 0.6829, the “relative binding vs DMSO” value (KDM1A; iQ, SW620 lysate, log10 M -6) was 0.6182 and the “relative binding vs DMSO” value (KDM1A; [9]) was 0.6303. The “relative binding vs DMSO” value (KDM1A; iQ, SW620 lysate, log10 M -7) was 0.7048.
